Source: patent US20230027066A1 (Urovant Sciences GmbH, priority 2019, published 2023)
Values joined by “and” are separate entries in the source; they are usually repeats but may differ in a detail not shown here. Equal entries are not always repeated.

Tests used:
[1] = Phase 1 program safety (16 Phase 1 studies); type: in vivo; conditions: single doses 2 to 600 mg, multiple doses 25 to 400 mg up to 28 days
Description: Safety data from 16 Phase 1 studies, which include 15 completed Phase 1 studies and 1 study that was terminated early (this study was terminated for reasons unrelated to efficacy or safety) was collected.

[2] = drug interaction study of vibegron and rifampin, pharmacokinetics; type: in vivo, human
[3] = vibegron exposure in special populations (renal impairment, CYP3A/P-gp inhibitor, elderly, females); type: in vivo, human
[4] = QTc study comparison mirabegron and vibegron, BP and HR in healthy subjects; type: in vivo, human; conditions: for HR change at Cmax, placebo adjusted / SBP change 24-hour average, placebo adjusted / SBP change at Cmax, placebo adjusted: healthy subjects
[5] = thorough QT study, single doses of 200 and 400 mg, healthy volunteers; type: in vivo, human
[6] = Phase 1 ABPM study, ambulatory blood pressure and heart rate in OAB subjects, 28 days; type: in vivo, human
Description: The objectives and endpoints were as described below. “Mean daytime” ABPM endpoints are calculated as the mean of all valid ABPM readings while the subject was awake during the 24-hour monitoring session. “Mean 24 hr” ABPM endpoints are calculated as the mean of all valid ABPM readings during the 24 hr monitoring session.
For the analysis of the ABPM endpoints (CFB to Day 29 of systolic and diastolic blood pressure, and heart rate), a generalized linear model (GLM) was used. […] The analysis model for each efficacy endpoint included terms for treatment, age group (≤55 vs >55 years), sex (Male vs Female), and pre-existing hypertension (Yes vs No), and baseline score.
Primary inferences were drawn from treatment differences for the CFB at Day 29 from the GLM. […] To test the primary hypothesis in Section 85, the upper limit of the two-sided 90% confidence interval was compared to 3.5, and the null hypothesis was rejected if the upper limit was strictly less than 3.5.
The 24-mean ambulatory baseline for systolic and diastolic blood pressure, and heart rate was the arithmetic mean of all valid measurements between the time of cuff-fitting on Day −1 to cuff-removal on Day 1. The 24-hour mean at Day 29 was arithmetic mean of all valid measurements between the time of cuff-fitting on Day 28 to cuff removal on Day 29.
The maximum SBP, DBP and HR in the tmax window at baseline was the maximum of the hourly means of valid measurements from 0.5 to 6.5 hours after the time of cuff fitting on Day −1. On Day 28, the maximum SBP, DBP and HR in the tmax window was the maximum of the hourly means of valid measurements from 0.5 to 6.5 hours after dose.
The mean daytime ambulatory baseline for systolic and diastolic blood pressure, and heart rate was the arithmetic mean of all measurements taken during the time interval in which the subject was awake. The same definition was applied to Day 29 measurements.

CYP2D6 = CYP2D6 (Homo sapiens, UniProt P10635); test: clinical; conditions: in vivo, 4 mg
Sequence of CYP2D6 (P10635 whole entry): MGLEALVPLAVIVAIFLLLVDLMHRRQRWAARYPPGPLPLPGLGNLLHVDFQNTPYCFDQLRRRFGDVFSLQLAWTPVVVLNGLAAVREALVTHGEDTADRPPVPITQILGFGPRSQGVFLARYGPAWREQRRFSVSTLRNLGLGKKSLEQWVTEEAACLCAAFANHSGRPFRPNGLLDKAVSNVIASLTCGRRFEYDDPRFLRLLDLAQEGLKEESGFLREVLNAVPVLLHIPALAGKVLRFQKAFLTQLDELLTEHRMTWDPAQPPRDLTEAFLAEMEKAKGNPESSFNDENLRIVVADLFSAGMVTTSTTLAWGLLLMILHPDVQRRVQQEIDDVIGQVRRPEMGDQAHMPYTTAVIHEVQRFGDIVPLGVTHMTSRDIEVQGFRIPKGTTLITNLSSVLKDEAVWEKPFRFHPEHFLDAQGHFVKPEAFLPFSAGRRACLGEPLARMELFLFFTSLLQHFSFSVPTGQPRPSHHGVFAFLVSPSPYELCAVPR

[7] = vibegron 75 mg single dose + rifampin 600 mg QD
[8] = vibegron 75 mg single dose alone
[9] = vibegron 75 mg/day, 4 weeks, full analysis set

Compound: O=C(Nc1ccc(C[C@@H]2CC[C@H]([C@H](O)c3ccccc3)N2)cc1)[C@@H]1CCc2nccc(=O)n21 [Vibegron, (6S)-N-[4-[[(2S,5R)−5-[(R)-hydroxy(phenyl)methyl]pyrrolidin−2-yl]methyl]phenyl]−4-oxo−7,8-dihydro−6H-pyrrolo[1,2-a]pyrimidine−6-carboxamide]
- tolerability across the Phase 1 program [1]: generally well tolerated
- AUC(0-t) ([2]; both sexes, human, in vivo, 75 mg, read-out: AUC0-t, geometric mean (% CV)): 1160 ng·h/mL
- Cmax ([2]; both sexes, human, in vivo, 75 mg, read-out: Cmax, geometric mean (% CV)): 82.3 ng/mL
- AUC(0-inf) ([2]; both sexes, human, in vivo, oral, 75 mg, read-out: AUC0-∞, geometric mean (% CV)): 1310 ng·h/mL
- half-life ([2]; both sexes, human, in vivo, oral, 75 mg, read-out: t1/2, geometric mean (% CV) (converted)): 84 h
- CL/F, geometric mean (% CV) [2, 7]: 57.3 (30.1) L/hr
- V/F, geometric mean (% CV) [2, 7]: 6140 (47.0) L
- CL/F, geometric mean (% CV) [2, 8]: 57.2 (39.7) L/hr
- V/F, geometric mean (% CV) [2, 8]: 6930 (48.6) L
- higher Cmax in elderly and females than healthy young males ([3]; elderly and females): 50-70%
- mean increase in AUC in subjects with moderate renal impairment vs normal renal function ([3]; moderate renal impairment): 1.6 fold
- SBP change 24-hour average, 75 mg estimate, placebo adjusted ([4]; 75 mg estimate from QT study): 24-hour average: 0.1 mmHg
- SBP change at Cmax, 75 mg estimate, placebo adjusted ([4]; 75 mg estimate from QT study): At Cmax: 0.4 mmHg
- HR change at Cmax, placebo adjusted ([4]; 200 mg single-dose): 4.1 BPM
- SBP change 24-hour average, placebo adjusted ([4]; 200 mg single-dose): +0.7 mmHg
- SBP change at Cmax, placebo adjusted ([4]; 200 mg single-dose): +2.2 mmHg
- HR change at Cmax, placebo adjusted ([4]; 400 mg single-dose): 11.2 BPM
- SBP change 24-hour average, placebo adjusted ([4]; 400 mg single-dose): 1.3 mmHg
- SBP change at Cmax, placebo adjusted ([4]; 400 mg single-dose): +3.97 mmHg
- effect on QTc or blood pressure in thorough QT study ([5]; human, in vivo): no clinically meaningful effect on QTc or blood pressure
- AUC, mean ± SD ([5]; vibegron 200 mg single dose): 2430 ± 974 ng·h/mL
- Maximum mean placebo corrected change from baseline RR interval ([5]; vibegron 200 mg single dose): -84.36 ms
- Maximum mean placebo corrected change from baseline diastolic BP ([5]; vibegron 200 mg single dose): 2.42 mmHg
- Maximum mean placebo corrected change from baseline systolic BP ([5]; vibegron 200 mg single dose): 2.20 mmHg
- AUC, mean ± SD ([5]; vibegron 400 mg single dose): 6800 ± 2300 ng·h/mL
- Maximum mean placebo corrected change from baseline RR interval ([5]; vibegron 400 mg single dose): -162.45 ms
- Maximum mean placebo corrected change from baseline diastolic BP ([5]; vibegron 400 mg single dose): 3.99 mmHg
- Maximum mean placebo corrected change from baseline systolic BP ([5]; vibegron 400 mg single dose): 3.97 mmHg
- ABPM Max (0.5-6.5 h) DBP Change from Baseline to Day 28, LSMean ([6]; 75 mg, FAS): 0.63 mmHg
- ABPM Max (0.5-6.5 h) DBP Change from Baseline to Day 28, Treatment Difference Vibegron-Placebo ([6]; 75 mg, FAS): 1.16 mmHg
- ABPM Max (0.5-6.5 h) HR Change from Baseline to Day 28, LSMean ([6]; 75 mg, FAS): 1.76 bpm
- ABPM Max (0.5-6.5 h) HR Change from Baseline to Day 28, Treatment Difference Vibegron-Placebo ([6]; 75 mg, FAS): 1.48 bpm
- ABPM Max (0.5-6.5 h) SBP Change from Baseline to Day 28, LSMean ([6]; 75 mg, FAS): 1.96 mmHg
- ABPM Max (0.5-6.5 h) SBP Change from Baseline to Day 28, Treatment Difference Vibegron-Placebo ([6]; 75 mg, FAS): 1.67 mmHg
- ABPM Mean 24 H DBP Change from Baseline to Day 28, LSMean ([6]; 75 mg, FAS): 0.51 mmHg
- ABPM Mean 24 H DBP Change from Baseline to Day 28, Treatment Difference Vibegron-Placebo ([6]; 75 mg, FAS): −0.19 mmHg
- ABPM Mean 24 H HR Change from Baseline to Day 28, LSMean ([6]; 75 mg, FAS): 0.80 bpm
- ABPM Mean 24 H HR Change from Baseline to Day 28, Treatment Difference Vibegron-Placebo ([6]; 75 mg, FAS): 0.96 bpm
- ABPM Mean 24 H SBP Change from Baseline to Day 28, LSMean ([6]; 75 mg, FAS): 0.60 mmHg
- ABPM Mean 24 H SBP Change from Baseline to Day 28, Treatment Difference Vibegron-Placebo ([6]; 75 mg, FAS): 0.57 mmHg
- ABPM Mean Daytime DBP Change from Baseline to Day 28, LSMean ([6]; 75 mg, FAS): 0.50 mmHg
- ABPM Mean Daytime DBP Change from Baseline to Day 28, Treatment Difference Vibegron-Placebo ([6]; 75 mg, FAS): −0.04 mmHg
- ABPM Mean Daytime HR Change from Baseline to Day 28, LSMean ([6]; 75 mg, FAS): 1.08 bpm
- ABPM Mean Daytime HR Change from Baseline to Day 28, Treatment Difference Vibegron-Placebo ([6]; 75 mg, FAS): 0.88 bpm
- Mean Daytime ABPM SBP Change from Baseline to Day 28, LSMean ([6]; 75 mg, FAS): 0.82 mm Hg
- Mean Daytime ABPM SBP Change from Baseline to Day 28, Treatment Difference Vibegron-Placebo ([6]; 75 mg, FAS): 0.81 mm Hg
- Change from Baseline to Day 28 for Maximum (0.5 to 6.5 hrs) ABPM SBP, LSMean ([6]; 75 mg, PPS): 1.0 mm Hg
- Change from Baseline to Day 28 for Maximum (0.5 to 6.5 hrs) ABPM SBP, Treatment Difference Vibegron-Placebo ([6]; 75 mg, PPS): 1.05 mm Hg
- Mean Daytime ABPM SBP Change from Baseline to Day 28, LSMean ([6]; 75 mg, PPS): 0.19 mm Hg
- Mean Daytime ABPM SBP Change from Baseline to Day 28, Treatment Difference Vibegron-Placebo ([6]; 75 mg, PPS): 0.41 mm Hg
- ABPM DBP Day 28 change from baseline ≥10 mmHg, subjects ([6]; Maximum (0.5-6.5 h), FAS): 9 (9.8) n (%)
- ABPM HR Day 28 change from baseline ≥10 bpm, subjects ([6]; Maximum (0.5-6.5 h), FAS): 20 (21.7) n (%)
- ABPM SBP Day 28 change from baseline ≥15 mmHg, subjects ([6]; Maximum (0.5-6.5 h), FAS): 6 (6.5) n (%)
- ABPM DBP Day 28 change from baseline ≥10 mmHg, subjects ([6]; Mean 24-hour, FAS): 1 (1.0) n (%)
- ABPM HR Day 28 change from baseline ≥10 bpm, subjects ([6]; Mean 24-hour, FAS): 3 (3.1) n (%)
- ABPM SBP Day 28 change from baseline ≥15 mmHg, subjects ([6]; Mean 24-hour, FAS): 2 (2.1) n (%)
- ABPM DBP Day 28 change from baseline ≥10 mmHg, subjects ([6]; Mean Daytime, FAS): 2 (2.1) n (%)
- ABPM HR Day 28 change from baseline ≥10 bpm, subjects ([6]; Mean Daytime, FAS): 3 (3.1) n (%)
- ABPM SBP Day 28 change from baseline ≥15 mmHg, subjects ([6]; Mean Daytime, FAS): 2 (2.1) n (%)
- effects on blood pressure (overall conclusion of ABPM study) ([6]; vibegron 75 mg, 28 days): no clinically relevant effects on blood pressure
- mean change of daytime ambulatory systolic blood pressure from baseline, difference from placebo (primary endpoint) ([6]; vibegron 75 mg, 28 days): less than 1 mm Hg
- mean change from baseline in daytime ambulatory systolic blood pressure ([6]; vibegron 75 mg/day, 4-week treatment, full analysis set): 0.89 mmHg
- mean change of 24-hour ambulatory diastolic blood pressure from baseline, lower than placebo by ([6]; vibegron 75 mg/day, 4 weeks): 0.19 mmHg
- mean change of 24-hour ambulatory heart rate from baseline ([6]; vibegron 75 mg/day, 4 weeks): about 0.80
- mean change of 24-hour ambulatory heart rate from baseline, higher than placebo by ([6]; vibegron 75 mg/day, 4 weeks): 0.96 bpm
- mean change of 24-hour ambulatory systolic blood pressure from baseline, higher than placebo by ([6]; vibegron 75 mg/day, 4 weeks): 0.57 mmHg
- mean change of daytime ambulatory diastolic blood pressure from baseline, lower than placebo by ([6]; vibegron 75 mg/day, 4 weeks): 0.04 mmHg
- mean change of daytime ambulatory heart rate from baseline ([6]; vibegron 75 mg/day, 4 weeks): about 1.08 bpm
- mean change of daytime ambulatory heart rate from baseline, higher than placebo by ([6]; vibegron 75 mg/day, 4 weeks): 0.88 bpm
- mean increase in 24-hour ambulatory diastolic blood pressure from baseline ([6]; vibegron 75 mg/day, 4 weeks): 0.51 mmHg
- mean increase in 24-hour ambulatory systolic blood pressure from baseline ([6]; vibegron 75 mg/day, 4 weeks): 0.61 mmHg and 0.60 mmHg
- mean change of daytime ambulatory systolic blood pressure from baseline, higher than placebo by [6, 9]: 0.81 mmHg
- mean daytime ambulatory systolic upper bound of the 90% confidence interval (Table 103) [6, 9]: 1.11 mm Hg
- mean daytime ambulatory systolic blood pressure, upper bound of 90% confidence interval of difference from placebo ([6]; vibegron 75 mg/day, 4 weeks, full analysis set (Table 101)): 2.49 mm Hg
- mean change of daytime ambulatory systolic blood pressure from baseline, higher than placebo by ([6]; vibegron 75 mg/day, 4 weeks, per protocol set): 0.41 mmHg
- mean daytime ambulatory systolic blood pressure, upper bound of 90% confidence interval of difference from placebo ([6]; vibegron 75 mg/day, 4 weeks, per protocol set (Table 102)): 2 mm Hg

Compound: Cc1ccc(O)c([C@H](CCN(C(C)C)C(C)C)c2ccccc2)c1 [Tolterodine ER, tolterodine, reference compound]
- AUC(0-t) (CYP2D6): 28.4 ng·h/mL
- half-life (CYP2D6): 10 h
